# Columns and labels:
# [1] = biological target: T1, Riboflavin-binding protein (Gallus gallus, UniProt P02752); test: Binding affinity to chicken riboflavin binding protein by surface plasmon resonance assay
# T1 sequence (P02752 whole entry): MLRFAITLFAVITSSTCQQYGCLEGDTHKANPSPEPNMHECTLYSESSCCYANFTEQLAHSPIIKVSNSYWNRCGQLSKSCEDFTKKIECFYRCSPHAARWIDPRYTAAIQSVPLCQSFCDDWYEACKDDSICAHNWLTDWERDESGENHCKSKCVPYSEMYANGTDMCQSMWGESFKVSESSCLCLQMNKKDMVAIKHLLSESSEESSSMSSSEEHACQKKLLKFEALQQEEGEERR
# [2] = biological target: T2, Riboflavin-binding protein (Gallus gallus) (UniProt P02752); test: Competitive inhibition of chicken riboflavin binding protein binding to immobilized ligand by surface plasmon resonance assay
# T2 sequence (whole entry): T1 sequence (P02752 whole entry)
# [3] = biological target: T2, Riboflavin-binding protein (Gallus gallus); test: Competitive inhibition of chicken riboflavin binding protein binding to immobilized ligand at 500 uM by surface plasmon resonance assay
# [4] = biological target: T1, Riboflavin-binding protein; test: Binding affinity to chicken riboflavin binding protein assessed as dissociation constant at pH 7.4 in phosphate buffer by isothermal titration calorimetric assay
# [5] = biological target: T1, Riboflavin-binding protein; test: Binding affinity to chicken riboflavin binding protein assessed as dissociation constant at pH 9 in 0.1 M Tris by isothermal titration calorimetric assay
# [6] = biological target: T1, Riboflavin-binding protein; test: Binding affinity to chicken riboflavin binding protein assessed as dissociation constant at pH 4 in 0.1 M NaAc by isothermal titration calorimetric assay
# [7] = biological target: T1, Riboflavin-binding protein; test: Binding affinity to chicken riboflavin binding protein assessed as dissociation constant at pH 7.4 in 0.1 M phosphate buffer by isothermal titration calorimetric assay
# [8] = biological target: T1, Riboflavin-binding protein; test: Competitive inhibition of chicken riboflavin binding protein by surface plasmon resonance assay
Kd [1] [nM],inhibition [2],inhibition [3] [%],Kd [5] [nM],Kd [6] [nM],Kd [7] [nM],Ki [8] [nM],Compound,Kd [4] [nM]
35500,Dose-dependent effect,90,–,–,–,–,Cc1cc2nc3c(=O)n(CC(=O)NCCCN)c(=O)nc-3n(C[C@H](O)[C@H](O)[C@H](O)CO)c2cc1C,–
–,–,–,–,–,–,–,Cc1cc2nc3c(=O)[nH]c(=O)nc-3n(C)c2cc1C [LUMIFLAVIN],61
–,–,–,34,46,6.6,350,Cc1cc2nc3c(=O)[nH]c(=O)nc-3n(C[C@H](O)[C@H](O)[C@H](O)CO)c2cc1C [RIBOFLAVIN],5
